The target in experiment [1] is T1, notexine (PLA₂ du venin de Notechis scutatus scutatus), notexine seule (Notechis scutatus scutatus, UniProt P00608).
T1 sequence (P00608 1-119): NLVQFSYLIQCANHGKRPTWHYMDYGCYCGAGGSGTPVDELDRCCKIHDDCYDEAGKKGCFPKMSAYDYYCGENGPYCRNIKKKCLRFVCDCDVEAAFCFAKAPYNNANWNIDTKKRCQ
Briefly: Enzymatic activity of notexin by pH-stat titration of released fatty acids, Lineweaver-Burk analysis. Format: biochemical. The note with it: substrate: phosphatidylcholine emulsion 7,5-82,5 mM with sodium deoxycholate (ratio 3,7), CaCl₂ 20 mM, NaCl 0,12 M, pH 8, 40°C; notexin 0,5 µg/4 ml; read graphically; also printed as 0,034 M. The procedure: (§1) La mesure de l'activité enzymatique est réalisée à l'aide d'un appareil pH stat (Methrom). Les acides gras libérés sont titrés à pH constant (pH = 8), par une solution d'hydroxyde de Na 0,01 N à 40°C.
(§2) Le substrat est une émulsion de phosphatidylcholine (Halpert - Eaker, 1975), dans une solution de CaCl₂ 20 mM, NaCl 0,12 M, en présence de désoxycholate de sodium.
(§3) Le rapport concentration finale de phosphatidylcholine/concentration finale de désoxycholate de sodium est maintenu constant, égal à 3,7.
(§4) Les solutions initiales sont : phosphatidylcholine : 600 mM dans l'éthanol, désoxycholate de sodium : 270 mM dans H₂O. Le volume réactionnel final est de 4 ml.
(§5) Les volumes de soude ajoutés pour maintenir le pH constant sont enregistrés automatiquement en fonction du temps.
L'analyse cinétique de la réaction enzymatique a été faite par deux méthodes : mesure de Vi et mesure de Vmax.
Pour l'étude de Vi = f( [S] ) et 1/Vi = f(1/ [S]), à concentration de notexine constante ( [Et] = 0,5 µg/4 ml), la concentration de substrat varie de 7,5 mM à 82,5 mM. La mesure est réalisée en absence et en présence d'anticorps monoclonaux polyspécifiques MN₁, en excès molaire de 10 par rapport à la notexine. […]

Experiment [2] concerns the target T2, notexine (PLA₂ du venin de Notechis scutatus scutatus) en présence d'anticorps MN₁ (Notechis scutatus scutatus, UniProt P00608).
T2 sequence (P00608 1-119): T1 sequence (P00608 1-119)
Briefly: Enzymatic activity of notexin pre-incubated with monoclonal antibody MN₁, by pH-stat titration and Lineweaver-Burk analysis. In kind it is biochemical. To be noted: same substrate and conditions; MN₁ in 10-fold molar excess over notexin, pre-incubated 1 h at room temperature; read graphically; also printed as 0,034 M. How it is done: as §1, §2, §3, §4, §5
Les anticorps monoclonaux sont dialysés pendant 24 heures dans la solution de CaCl₂ utilisée pour effectuer les mesures, afin d'éviter une modification du pH du milieu réactionnel, lors de l'addition des anticorps. Ils sont incubés avec la notexine pendant une heure à température ambinate.
L'activité enzymatique de la notexine ainsi traitée, est alors mesurée.
L'analyse cinétique de la réaction enzymatique a été faite par deux méthodes : mesure de Vi et mesure de Vmax. […]

As usually defined, the Km is the substrate concentration at which the rate is half of its maximum.

As for phosphatidylcholine, the Km in experiment [1] and in experiment [2] was 34 mM in each case.

These data come from patent EP0320366A1, “Monoclonal antibodies against phospholipase A2 from the venom of snakes of the families Elapides and Hidrophides, methods for their preparation and their use in detecting poisoning caused by these snake families” (COMMISSARIAT A L'ENERGIE ATOMIQUE, priority 1987, dated 1989).
